Laboratory results taken from patent US12594265B2, “Methods and compositions for inhibition of STAT3” (Ohio State Innovation Foundation, priority 2017, dated 2026).

System: IL-17 production in PBMCs from MS patients
Assay type: cell-based, human
Conditions: for IL-17 production in PBMCs from MS patients: activated with anti-CD3 for three or six days, different concentrations
Method: FIGS. 14A-14M show representative data for LLL12b suppression of human Th17 development and promotion of Treg development in CD4 T-cells from MS patients. FIGS. 14A, 14E, 14H, and 14K each shown representative data obtained in PBMCs from 22 treatment-naïve MS patients that were activated with αhCD3 plus rhIL-6 for 3 days, in the presence of 0.125 μM or 0.25 μM of LLL12b. DMSO was used as a vehicle control. IL-17 in supernatant was determined by ELISA. FIGS. 14B-14C, 14F, 14I, and 14L each shown representative data obtained in PBMCs from 22 treatment-naïve MS patients that were activated with αhCD3/CD28 plus rhTGFβ. rhIL-2 and RA for 3 days, in the presence of 0.125 μM of LLL12b. DMSO was used as vehicle control. CD25+FoxP3+CD4+ iTregs were determined by intracellular flow cytometry. Cells were gated CD45RA+CD4+ cells. […] IL-17 in each group was compared with one-way ANOVA. […] FIG. 14G the calculated IL-17/Treg ratio of each patient in LLL12b group and DMSO group and compared with Wilcoxon matched-pairs signed rank test. […] FIG. 14J the calculated percent decrease of IL-17/Treg ratio in LLL12b group compared to DMSO group. […] FIG. 14M patient numbers in different ranges of calculated percent decrease of IL-17/Treg.
FIGS. 12A-12B show representative data for the effect of a representative disclosed compound, LLL12b, on the production of proinflammatory cytokines in human peripheral blood mononuclear cells (PBMCs).
LLL12b reduces Teff/Treg ratio by suppressing human Th17 development and promoting Treg development of CD4 T cells from MS patients. Teff/Treg balance is critical for the normal function of the human immune system and increased Teff/Treg ratio favors autoimmunity. As IL-6/STAT3 signaling pathway is critical for the highly encephalitogenic Th17 cells while blocks the development of inducible Tregs (iTregs), we hypothesize that novel small molecule STAT3 inhibitor LLL12b will reduces Teff/Treg ratio by suppressing Th17 development and/or prompting iTreg development. Therefore, we determined the effects of LLL12b on IL-17 production and iTreg development of CD4 T cells from 22 treatment-naïve MS patients (FIGS. 14A-14M). Human PBMCs from 22 treatment-naïve MS patients were activated with αhCD3 for 3 days, in the presence of different concentrations of LLL12b or vehicle control (DMSO), IL-17 production in supernatants was determined by ELISA. As the myelin-reactive CD4 T cells in MS patients are predominantly from the memory T-cell compartment, we activated human PBMCs with αhCD3 to specifically activate effector/memory CD4 T cells.
To determine whether LLL12b treatment decreases Th17/Treg ratio in CD4 T cells from MS patients, the IL-17/Treg ratio of all 22 treatment-naïve MS patients treated with LLL12b was calculated and compared with those treated with DMSO (FIGS. 14G, 14J, and 14M). The data in Table 2 show the patient numbers in different ranges of percentage decrease of IL-17, percentage increase of iTregs or percentage decrease of IL-17/iTreg of 22 treatment-naïve MS patients treated with LLL12b compared to DMSO treatment.

[1] = of 22 treatment-naïve MS patients, compared to DMSO

Compound | IL-17 production in PBMCs from MS patients | hIL-17 production (0.125 μM and 0.25 μM, one MS patient, 3 days) | IL-17 production in effector/memory human CD4 T cells (0.125 μM, 22 treatment-naïve MS patients) | IL-17/Treg ratio (22 treatment-naïve MS patients, compared to DMSO treated group) | patient numbers with % Decrease of IL-17 5-20% [1] | patient numbers with % Decrease of IL-17 20-40% [1] | patient numbers with % Decrease of IL-17/iTreg ratio 5-20% [1] | patient numbers with % Decrease of IL-17/iTreg ratio 20-40% [1] | patient numbers with % Decrease of IL-17/iTreg ratio <5% [1] | patient numbers with % Decrease of IL-17/iTreg ratio >40% [1] | patient numbers with % Decrease of IL-17 <5% [1] | patient numbers with % Decrease of IL-17 >40% [1]
NS(=O)(=O)c1cccc2c1C(=O)c1cccc(O)c1C2=O [LLL12] | suppress IL-17 production | – | – | – | – | – | – | – | – | – | – | –
CN(C)C(=O)Oc1cccc2c1C(=O)c1cccc(S(N)(=O)=O)c1C2=O [LLL12b] | suppress IL-17 production | suppressed hIL-17 production | significantly suppressed IL-17 production | significantly lower | 11 | 7 | 5 | 13 | 1 | 3 | 1 | 3
